From US20030004128A1, “Formulatios of adenosine a1 agonists” (priority 1999, published 2003)

How the values were obtained:
[1] = test system: carrageenan-induced oedema; test: Carrageenan model, paw oedema (plethysmometer); format: in vivo, rat; conditions: versus vehicle control
Method: (§1) Male Random Hooded rats (180-220 g) were used. The test compound or vehicle was administered 30 mins before the 2nd test compound or vehicle. The test compound and vehicles used were: (i) Compound A in 1% DMSO, 66% Peg400, 33% distilled water and (ii) nabumetone in 1% DMSO, 66% Peg400, 33% distilled water. Both test compounds were administered via the oral route. After a further 30 mins 100 ul of 2% carrageenan was injected intraplantar into the left hind paw and the animals were then returned to their cages. Three hours later behavioural testing of the carrageenan-induced decrease in weight on the inflamed left hind paw (% weight on the inflammed left paw) and associated oedema was assessed. Weight bearing was measured using the dual channel weight averager and paw oedema was assessed using a plethysmometer. The dual channel weight averager is commercially available and is described in the following abstract: Validation of the dual channel weight averager as an instrument for the measurement of inflammatory pain, N. M. Clayton et al., 1997 British Journal Pharmacol. 120, 219P
(§2) Note: Oedema is the presence of abnormally large amounts of fluid in the intercellular tissue spaces of the body and in the present example is used to provide a measure of inflammation (or anti-oedemic). Allodynia is a sensation of pain resulting from a non-injurious stimulus such as normal heat, cold or pressure on skin and in the present example the weight-bearing (allodynia) effect in used to provide a measure of analgesia.
(§3) The methodology was as described for (a) above. The test compounds and vehicles used were: (i) Compound A in 1% DMSO, 66% Peg400, 33% distilled water and (ii) Compound B in 1% DMSO, 66% Peg400, 33% distilled water. Both compounds were administered via the oral route.

[2] = test system: carrageenan-induced allodynia (decrease in weight bearing on the inflamed left hind paw); test: Carrageenan model, weight bearing on inflamed left hind paw (dual channel weight averager); format: in vivo, rat; conditions: for % Weight on inflamed paw (Allodynia): Table (A), 3 h after carrageenan, 50% = no pain; for % Inhibition Allodynia: versus vehicle control
Method: as §1, §2, §3

[3] = Table (B), experiment (a), Compound A 0.4 mg/kg oral
[4] = Table (C), experiment (b), Compound A 0.4 mg/kg oral
[5] = Table (C), experiment (b), Compound B 3 mg/kg oral
[6] = Table (B), experiment (a), nabumetone 3 mg/kg oral

CC(C)(C)c1nnc([C@H]2O[C@@H](n3cnc4c(Nc5ccc(Cl)cc5F)ncnc43)[C@H](O)[C@@H]2O)o1 [Compound A, (2S, 3S, 4R, 5R)-2-(5 tert-butyl-[1,3,4]oxadiazol-2-yl)-5-[6-(4-chloro-2-fluoro-phenylamino)-purin-9-yl]-tetrahydro-furan-3,4-diol] was tested, and the “% Inhibition Oedema” value [1, 3] was −7.4 ± 5.7%, the “% Inhibition Oedema” value [1, 4] was 24.9 ± 5.5% and the “% Weight on inflamed paw (Allodynia)” value ([2]; Compound A 0.4 mg/kg oral) was 25.4 ± 2.9%. For the same compound, the “% Inhibition Allodynia” value [2, 3] was 17.0 ± 9.6% and the “% Inhibition Allodynia” value [2, 4] was 47.9 ± 11.1%.

With CCOc1ccc(-c2nn3ncccc3c2-c2ccc(S(C)(=O)=O)cc2)cc1 [Compound B, 2-(4-ethoxy-phenyl)-3-(4-methanesulfonyl-phenyl)-pyrazolo[1,5-b]pyridazine] the “% Inhibition Oedema” value [1, 5] was 35.8 ± 3.6% and the “% Inhibition Allodynia” value [2, 5] was 45.4 ± 8.9%.

COc1ccc2cc(CCC(C)=O)ccc2c1 [Nabumetone, nabumetone, reference compound] was tested, and the “% Inhibition Oedema” value [1, 6] was −25.1 ± 4.7%, the “% Weight on inflamed paw (Allodynia)” value ([2]; nabumetone 3 mg/kg oral) was 21.6 ± 3.6% and the “% Inhibition Allodynia” value [2, 6] was 4.3 ± 12.2%.
